The conditions of series [1]: rat, in vivo, sc.
Series [2] relates to MN9D neuronal cells. In words: LIVE/DEAD and JC-1 assays for toxicity and loss of mitochondrial potentials. As to conditions: 100 nM, 1 and 3 hours post treatment. The procedure:
(§1) Testing involved permutations of size and diversifying amino acid sequence at each residue position. Sequence design began with Proline-Proline-Glutamate-Alanine-Proline-Alanine-Glutamate-Aspartate-Arginine-Serine-Leucine-NH2. […] These properties were tested using the dopaminergic MN9D neuronal cell line. Each candidate peptide sequence was dissolved in citrate buffer and added to MN9D cells (Choi et al., 1992) that were cultured in Dulbecco's Modified Eagle's Medium [DMEM (containing pyridoxol HCl); Sigma, St. Louis, MO] supplemented with 10% Fetal Bovine serum (HyClone, Logan, UT), 50 U/ml penicillin and streptomycin to a final 100 nM concentration. Using LIVE/DEAD and JC-1 assays in MN9D neuronal cells, individual library sequences were measured for toxicity and loss of mitochondrial potentials at 1 and 3 hours post treatment. […] The remaining sequences were then tested for their ability to provide protection against neurotoxins rotenone, 1-methyl-4-phenylpyridinium (MPP+), and trichloromethyl-1,2,3,4-tetrahydro-β-carboline (TaClo).

In series [3] the test system is MN9D neuronal cells. In words: Protection of mitochondrial potentials against rotenone, MPP+ and TaClo-induced cytotoxicity. The series is classed as cell-based. As to conditions: 100 nM pretreatment, 1, 3, 12, 24 hours. The procedure:
as §1

Series [4] in a line: Plasma levels by LC-MS/MS after subcutaneous administration. The series is classed as in vivo, rat. The conditions noted are these: 100 mg/kg s.c. in saline.
For series [5] the following is noted: rat, in vivo, sc, 100 mg/kg.

Where a SMILES comes first, the peptide text is derived from it.

By half-life is commonly meant how long it takes for the measured level to halve. With `C[C@H](NC(=O)[C@@H]1CCCN1C(=O)[C@H](C)NC(=O)[C@@H](N)CCC(=O)O)C(=O)N[C@@H](CCC(=O)O)C(N)=O` [AV2157, Glutamate-Alanine-Proline-Alanine-Glutamate-NH2] (H-EAPAE-NH2; N-terminus assumed), in series [1], the “improved CNS bioavailability compared to AV6403” value is recorded as “over 10 times”. The toxicity result in the series with MN9D neuronal cells [2] is “low toxicity”. Also, the “protection against neurotoxins (rotenone, MPP+, TaClo)” value with MN9D neuronal cells [3] is listed as “protection against neurotoxin exposure at all time points measured”. Also, the “total lifetime in plasma” value in series [4] is approximately 120 min. Also, in series [4] (rat, plasma, sc, read-out: maximum plasma level), the Cmax was found to be 1250 ng/mL. Also, the Tmax in series [4] (rat, plasma, sc, read-out: time of maximum plasma level post administration (converted)) was 20 min. The same compound registered a half-life in series [5] of 50 to 60 min.

These data come from patent US11833185B2, “Anti-neurodegenerative therapeutic, method of manufacture, and use” (UNIVERSITY OF KENTUCKY RESEARCH FOUNDATION, priority 2017, dated 2023).
